The experiment relates to L1210 leukemia ip in BDF1 mice, survival T/C. Put plainly: NCI In Vivo Anticancer Drug Screen. Data for tumor model L1210 Leukemia (intraperitoneal) in B6D2F1 (BDF1) mice. Particulars: endpoint: mean survival time, higher = longer survival. Summed up:
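Transplantable tumor model; survival measured in treated vs vehicle control mice. Value = treated/control.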

Where [1] appears, read: dose: 100.0 mg/kg/injection, schedule: Q01DX001 (ip), vehicle: carboxymethylcellulose (CMC).
The mark [2] stands for this setting: dose: 200.0 mg/kg/injection, schedule: Q01DX001 (ip), vehicle: carboxymethylcellulose (CMC).
Setting [3] is: dose: 100.0 mg/kg/injection, schedule: Q01DX009 (ip), vehicle: Klucel (hydroxypropylcellulose) (HPC).
[4] abbreviates: dose: 50.0 mg/kg/injection, schedule: Q01DX001 (ip), vehicle: saline.
[5] abbreviates: dose: 100.0 mg/kg/injection, schedule: Q01DX001 (ip), vehicle: saline.
[6] abbreviates: dose: 200.0 mg/kg/injection, schedule: Q01DX001 (ip), vehicle: saline.
The mark [7] stands for this setting: dose: 400.0 mg/kg/injection, schedule: Q01DX001 (ip), vehicle: saline.
[8] abbreviates: dose: 100.0 mg/kg/injection, schedule: Q01DX001 (ip), vehicle: Klucel (hydroxypropylcellulose) (HPC).
[9] abbreviates: dose: 200.0 mg/kg/injection, schedule: Q01DX001 (ip), vehicle: Klucel (hydroxypropylcellulose) (HPC).
The mark [10] stands for this setting: dose: 100.0 mg/kg/injection, schedule: Q01DX009 (ip), vehicle: saline with Tween-80.
The mark [11] stands for this setting: dose: 200.0 mg/kg/injection, schedule: Q01DX009 (ip), vehicle: saline with Tween-80.
[12] abbreviates: dose: 50.0 mg/kg/injection, schedule: Q01DX009 (ip), vehicle: saline.
Setting [13] is: dose: 200.0 mg/kg/injection, schedule: Q01DX009 (ip), vehicle: saline.

The values that follow come from PubChem BioAssay AID248 (DTP/NCI, 2004).

Each structure is given as a SMILES string. “And” between values parts separate entries of the source, which are not always exact repeats. Identical values can stand only once. Inconclusive results and toxic doses are left out.

Regarding `O=C1C=C(N2CC2)c2ccccc2C1=O`, the T/C runs as follows: (dose: 2.5 mg/kg/injection, schedule: Q01DX009 (ip), vehicle: Klucel (hydroxypropylcellulose) (HPC)) 101 % of control; (dose: 2.5 mg/kg/injection, schedule: Q04DX003 (ip), vehicle: Klucel (hydroxypropylcellulose) (HPC)) 104 % of control; (dose: 5.0 mg/kg/injection, schedule: Q01DX009 (ip), vehicle: Klucel (hydroxypropylcellulose) (HPC)) 96 % of control; (dose: 5.0 mg/kg/injection, schedule: Q04DX003 (ip), vehicle: Klucel (hydroxypropylcellulose) (HPC)) 104 % of control; (dose: 10.0 mg/kg/injection, schedule: Q01DX009 (ip), vehicle: Klucel (hydroxypropylcellulose) (HPC)) 100 % of control; (dose: 10.0 mg/kg/injection, schedule: Q04DX003 (ip), vehicle: Klucel (hydroxypropylcellulose) (HPC)) 102 % of control. Moreover, the T/C (dose: 20.0 mg/kg/injection, schedule: Q01DX001 (ip), vehicle: Klucel (hydroxypropylcellulose) (HPC)) was 105 % of control; the T/C (dose: 20.0 mg/kg/injection, schedule: Q01DX009 (ip), vehicle: Klucel (hydroxypropylcellulose) (HPC)) is 104 % of control; the T/C (dose: 20.0 mg/kg/injection, schedule: Q04DX003 (ip), vehicle: Klucel (hydroxypropylcellulose) (HPC)) is 109 % of control.
In the case of `OCc1ccccc1CO`, the T/C was 95 % of control under setting [1]; 95 % of control under setting [2]; 98 % of control (dose: 400.0 mg/kg/injection, schedule: Q01DX001 (ip), vehicle: carboxymethylcellulose (CMC)).
For the compound `COc1cc(C(=O)NNC(=O)C(=O)NNC(=O)c2cc(OC)c(OC)c(OC)c2)cc(OC)c1OC`, the T/C is 95 % of control (dose: 6.25 mg/kg/injection, schedule: Q01DX009 (ip), vehicle: Klucel (hydroxypropylcellulose) (HPC)); 96 % of control and 101 % of control (dose: 12.5 mg/kg/injection, schedule: Q01DX009 (ip), vehicle: Klucel (hydroxypropylcellulose) (HPC)); 102 % of control (dose: 25.0 mg/kg/injection, schedule: Q01DX009 (ip), vehicle: Klucel (hydroxypropylcellulose) (HPC)); 92 % of control and 98 % of control and 101 % of control (dose: 50.0 mg/kg/injection, schedule: Q01DX009 (ip), vehicle: Klucel (hydroxypropylcellulose) (HPC)); 86 % of control under setting [3].
Consider `CC(C)(O)CCC1=C(O)c2ccccc2C(=O)C1=O`, for which the T/C (dose: 100.0 mg/kg/injection, schedule: Q04DX003 (ip), vehicle: Klucel (hydroxypropylcellulose) (HPC)) is 100 % of control and the T/C (dose: 200.0 mg/kg/injection, schedule: Q04DX003 (ip), vehicle: Klucel (hydroxypropylcellulose) (HPC)) is 94 % of control.
Take `O=C(CCCC(=O)N/N=C/c1ccc([N+](=O)[O-])cc1)N/N=C\c1ccc([N+](=O)[O-])cc1`: the T/C was 93 % of control under setting [4], 100 % of control under setting [5], 103 % of control under setting [6] and 103 % of control under setting [7].
Regarding `CC12C=CC3(CCC4C(C)(C)C(O[N+](=O)[O-])C(=O)CC4(C)C3CC1=O)C2` (stereo unspecified), the T/C reads like this: (dose: 75.0 mg/kg/injection, schedule: Q01DX009 (ip), vehicle: Klucel (hydroxypropylcellulose) (HPC)) 108 % of control; under setting [8], 92 % of control; (dose: 150.0 mg/kg/injection, schedule: Q01DX009 (ip), vehicle: Klucel (hydroxypropylcellulose) (HPC)) 100 % of control; under setting [9], 95 % of control; (dose: 300.0 mg/kg/injection, schedule: Q01DX009 (ip), vehicle: Klucel (hydroxypropylcellulose) (HPC)) 98 % of control; (dose: 400.0 mg/kg/injection, schedule: Q01DX001 (ip), vehicle: Klucel (hydroxypropylcellulose) (HPC)) 88 % of control.
For `CC1CC(O)C([N+](=O)[O-])C(O)C1` (stereo unspecified), the T/C (dose: 12.5 mg/kg/injection, schedule: Q01DX009 (ip), vehicle: saline) is 102 % of control.
In the case of `C=C(C)C(=O)O` (tested in a mixture with another compound), the T/C reads like this: (dose: 100.0 mg/kg/injection, schedule: Q01DX Z (ip), vehicle: saline) 105 % of control; (dose: 200.0 mg/kg/injection, schedule: Q01DX Z (ip), vehicle: saline) 89 % of control.
In the case of `CCC1(C)N=C(N)N=C(N)N1c1ccc(Cl)c(Cl)c1` (stereo unspecified), the T/C was 111 % of control (dose: 37.5 mg/kg/injection, schedule: Q04DX003 (ip), vehicle: saline); 103 % of control (dose: 75.0 mg/kg/injection, schedule: Q01DX001 (ip), vehicle: saline); 111 % of control (dose: 75.0 mg/kg/injection, schedule: Q04DX003 (ip), vehicle: saline); 101 % of control (dose: 150.0 mg/kg/injection, schedule: Q01DX001 (ip), vehicle: saline); 105 % of control (dose: 150.0 mg/kg/injection, schedule: Q04DX003 (ip), vehicle: saline).
Consider `CCC1(CC)c2ccccc2C(CC)(CC)[N+]1(C)C`, for which the T/C was 102 % of control under setting [1] and 98 % of control under setting [2].
Consider `Cc1c(Cl)cccc1NC(=O)CCl`, for which the T/C was 97 % of control under setting [10] and 103 % of control under setting [11].
For `CCCCOB(OCCCC)c1cccc(B(OCCCC)OCCCC)c1`, the T/C is, setting by setting: under setting [5], 89 % of control; under setting [6], 101 % of control; under setting [7], 117 % of control.
`O=C1Nc2cccc3cc(NCC(O)CCCl)cc1c23` (stereo unspecified): the T/C was 90 % of control under setting [5], 89 % of control under setting [6] and 100 % of control under setting [7].
For `CCOC(=O)Cc1c(C)c2cc(C(=O)c3ccccc3)c(O)cc2oc1=O`, in that order: 98 % of control, 96 % of control and 93 % of control.
As to `ON=C1CSCSC1`, the T/C runs as follows: (dose: 12.5 mg/kg/injection, schedule: Q04DX002 (ip), vehicle: saline) 91 % of control; (dose: 25.0 mg/kg/injection, schedule: Q04DX002 (ip), vehicle: saline) 94 % of control; (dose: 50.0 mg/kg/injection, schedule: Q04DX002 (ip), vehicle: saline) 88 % of control.
As to `Nc1ncc([N+](=O)[O-])s1`, the T/C reads like this: (dose: 25.0 mg/kg/injection, schedule: Q04DX002 (ip), vehicle: Klucel (hydroxypropylcellulose) (HPC)) 95 % of control; under setting [4], 98 % of control; (dose: 50.0 mg/kg/injection, schedule: Q04DX002 (ip), vehicle: Klucel (hydroxypropylcellulose) (HPC)) 98 % of control; under setting [5], 98 % of control; (dose: 100.0 mg/kg/injection, schedule: Q04DX002 (ip), vehicle: Klucel (hydroxypropylcellulose) (HPC)) 115 % of control; under setting [6], 98 % of control.
Turning to `O=C(O)/C(Br)=C(\Br)c1ccccc1`, the T/C by setting is: under setting [10], 101 % of control; under setting [11], 92 % of control; (dose: 400.0 mg/kg/injection, schedule: Q01DX009 (ip), vehicle: saline with Tween-80) 95 % of control.
`CCOC(=O)C1(c2ccccc2)CCN(CCC(=O)c2ccc(F)cc2)CC1`: the T/C is, setting by setting: under setting [8], 98 % of control; under setting [9], 95 % of control.
Turning to `NC(CCC(=O)NC(CSC(c1ccccc1)(c1ccccc1)c1ccc(F)cc1)C(=O)NCC(=O)O)C(=O)O` (stereo unspecified), the T/C (dose: 25.0 mg/kg/injection, schedule: Q01DX009 (ip), vehicle: saline) is 124 % of control; the T/C (dose: 50.0 mg/kg/injection, schedule: Q01DX009 (ip), vehicle: other) is 116 % of control; the T/C under setting [12] is 118 % of control; the T/C under setting [13] is 152 % of control.
Take `CC(C)(C)c1ccc(OCC(=O)O)c(Cl)c1`: the T/C under setting [10] is 91 % of control and the T/C under setting [11] was 101 % of control.
Consider `CC1C(=O)OC2CC[N+]3(C(C)C)CC=C(COC(=O)C(C)(O)C1(C)O)C23` (stereo unspecified), for which the T/C is 100 % of control under setting [12]; 106 % of control (dose: 100.0 mg/kg/injection, schedule: Q01DX009 (ip), vehicle: saline); 106 % of control under setting [13].
`CC(=O)OC1C=CN(C(C)=O)C(SC23CC4CC(CC(C4)C2)C3)C1O` (stereo unspecified): the T/C was 97 % of control under setting [3]; 97 % of control (dose: 200.0 mg/kg/injection, schedule: Q01DX009 (ip), vehicle: Klucel (hydroxypropylcellulose) (HPC)); 95 % of control (dose: 400.0 mg/kg/injection, schedule: Q01DX009 (ip), vehicle: Klucel (hydroxypropylcellulose) (HPC)).
